Results on 16 molecules are retold here after US20250205258A1 (priority 2022, published 2025).

SMILES strings stand for the structures.

Data set [1] concerns HCT116 colorectal cancer cells xenografts. The experiment in a line: In vivo antitumor activity, HCT116 xenografts (Efficacy Example 2). The following applies: 1a 10 mg/kg ip × 7, qod, 5-Fluorouracil 15 mg/kg ip × 7. More on the design: species or system BALB/C nude mice. The text has this: (§1) Experimental Method: The test animals were male SPF-grade BALB/C nude mice weighing 18 to 20 grams.
(§2) Experimental Procedure: Well-grown HCT116 colorectal cancer tumor masses were cut into uniform small pieces of approximately 3 mm in size under aseptic conditions. A cannula needle was used to inoculate one piece subcutaneously into the right axilla of each test mouse. Nine days after inoculation, the average tumor volume was approximately 113 to 119 mm^3. The animals were then regrouped based on tumor size, eliminating those with excessively large or small tumors, to ensure that the average tumor volume was consistent among the experimental groups. Administration by intraperitoneal injection was then initiated according to the following protocol, with a dosing volume of 0.2 mL per 20 grams of body weight:
(§3) From the 9th day of inoculation, the maximum tumor length (a, in mm) and the perpendicular maximum tumor width (b, in mm) were measured twice a week using a digital electronic caliper.
(§4) The tumor volume (TV) was calculated using the formula: TV=ab^2/2.
(§5) The relative tumor volume (RTV) was calculated using the formula: RTV=Vt/Vo, where Vo is the tumor volume measured at the time of cage distribution (i.e., day 1) and Vt is the tumor volume at each subsequent measurement.
(§6) On the 27th day after inoculation (day 19), the animals were euthanized, weighed, dissected to remove the tumor masses, and the tumor weights were measured.

For data set [2] the test system is unchanged. Kind of data set: In vivo antitumor activity, HCT116 xenografts (Efficacy Example 3). More on the design: species or system BALB/C nude mice. The following applies: 1c 1 mg/kg iv × 7, qod, 5-Fluorouracil 15 mg/kg ip × 7; for Animal weight (After tumor removal): nude mice, HCT116 xenograft; for RTV (d18): relative tumor volume; for TGI (%): tumor volume inhibition.
From the text: as §1, §2, §3, §4, §5, §6
This efficacy example employs the same test animals and experimental methods as Efficacy Example 2, with the only difference being that the average tumor volume was approximately 130 to 140 mm^3 on the 13th day after inoculation of HCT116 colorectal cancer tumor masses into the test mice. Subsequently, the animals were regrouped based on tumor size and administered the drug according to the same protocol as in Efficacy Example 2. The animals were euthanized on the 30th day after inoculation (i.e., day 18), and their body weights and tumor weights were measured after dissection.

Data set [3] has as its system human colorectal cancer cell line HCT116. Kind of data set: CCK-8 in vitro antitumor activity (Effect Example 1). To be noted: HCT-116, HCT116, CCK-8, 72 hours. Format: cell-based. As for the experimental part:
(§7) The CCK-8 method described in “Methods for New Drug Pharmacological Research” (edited by Lv Qiujun, 2007: 242-243) was adopted.
(§8) The cell lines used were human lung adenocarcinoma cell line A549 and human colorectal cancer cell line HCT116, which were cryopreserved and passaged in the pharmacological laboratory of the Shanghai Institute of Pharmaceutical Industry. The culture medium was DMEM supplemented with 10% FBS and antibiotics.
(§9) Cells in logarithmic growth phase were seeded into 96-well plates at a density of 7×10^3 cells per well and incubated at 37° C. in a 5% CO2 environment for 24 hours to maintain a normal physiological pH.
(§10) After cell attachment, different concentrations of the test compounds, namely the bufalin derivatives 1a to 1l prepared in Example 1, as well as the compound doxorubicin, were added to triplicate wells, with 0.1% DMSO added as a control.
(§11) After 72 hours, 10 μL of CCK-8 cell counting kit was added to each well, and the plates were incubated again at 37° C. for 0.5 to 1 hour. The absorbance (OD) was read at 450 nm on a full-featured microplate reader (Biotek Synergy H2), and the concentration causing 50% cell growth inhibition (IC50) was calculated by simulation using GraphPad Prism software.

Data set [4] concerns human lung adenocarcinoma cell line A549. Described as above. The following applies: A549, CCK-8, 72 hours. Format: cell-based. As for the experimental part:
as §7, §8, §9, §10, §11

The next data set deals with 95D cells. Kind of data set: Cell scratch test, migration of 95D cells. Format: cell-based, human. The following applies: different concentrations, FIG. 1 and FIG. 2. The method, then:
Test Method: Draw three parallel lines with a spacing of approximately 0.5 cm on the outer bottom surface of a 6-well plate. After evenly seeding the tumor cells 95D onto the plate (5×10^5 cells/well), create a cell scratch using a pipette. Wash the cells three times with phosphate-buffered saline (PBS) to remove the scratched-off cells. Then, add medium that has been pre-mixed with different concentrations of compound 1a or 1b.
Place the plate in a 37° C., 5% CO2 incubator for culturing. Sample the cells at 0, 12, 24, 36, and 48 hours, and take photographs under a microscope.
Using ImageJ software, measure the area and height of the scratch site. The average scratch width can be obtained by dividing the area by the height. Subtract the scratch width at the end of the experiment from the scratch width at the 0-hour point to obtain the distance of cell migration. Then, use this distance value to calculate the cell migration index (MI) according to the following formula:
Cell Migration Index(MI)=(Initial Blank Width−Blank Width at a Specific Time Point)/Initial Blank Width.

The target of the next data set is hERG potassium channel (Homo sapiens, UniProt Q12809). To be noted: test concentration 30 μM.
The test system of data set [5] is Human lung adenocarcinoma cells A549. The experiment in a line: CCK-8 in vitro antitumor activity (Table 5). It counts as cell-based. The following applies: A549, CCK-8, 72 hours. The source says: (§12) Test Method: The CCK-8 method from “Methods for New Drug Pharmacological Research” edited by Lv Qiujun (2007: 242-243) was adopted.
(§13) Cell lines used: Human lung adenocarcinoma cells A549, human high-metastasis lung cancer cells 95D, and human colon cancer cells HCT116, which were cryopreserved and passaged by the Pharmacological Laboratory of the Shanghai Institute of Pharmaceutical Industry, were selected. The culture medium used was DMEM+10% FBS+antibiotics.
(§14) Cells in the logarithmic growth phase were taken and seeded into 96-well plates at a density of 7×10^3 cells per well. They were then incubated at 37° C. in a 5% CO2 environment for 24 hours to maintain a normal physiological pH.
(§15) After cell adhesion, different concentrations of the test compounds, namely the bufalin derivatives IVa to IVc prepared in Example 5, as well as the comparative compound doxorubicin, were added to three replicate wells, with 0.1% DMSO added to separate wells as a control.
(§16) After 72 hours, 10 μL of the CCK-8 cell counting kit was added to each well, and the plates were incubated again at 37° C. for 0.5 to 1 hour. The absorbance (OD) was read at 450 nm on a full-function microplate reader, Biotek Synergy H2, and the concentration causing 50% inhibition of cell growth (IC50) was calculated through simulation using GraphPad Prism software.

For data set [6], the system named is human colon cancer cells HCT116. The experiment in a line: CCK-8 in vitro antitumor activity (Table 5). The following applies: for IC50: Homo sapiens, HCT-116, HCT116, CCK-8, 72 hours; for activity against HCT116 compared with doxorubicin: HCT116, versus doxorubicin. Format: cell-based.
From the text: as §12, §13, §14, §15, §16

The test system of data set [7] is human high-metastasis lung cancer cells 95D. Kind of data set: CCK-8 in vitro antitumor activity (Table 5). The following applies: for IC50: Homo sapiens, CCK-8, 72 hours. It counts as cell-based.
From the text: as §12, §13, §14, §15, §16

The IC50 is the point on the concentration scale where inhibition reaches its midpoint.

hERG potassium channel, sequence (Q12809 whole entry): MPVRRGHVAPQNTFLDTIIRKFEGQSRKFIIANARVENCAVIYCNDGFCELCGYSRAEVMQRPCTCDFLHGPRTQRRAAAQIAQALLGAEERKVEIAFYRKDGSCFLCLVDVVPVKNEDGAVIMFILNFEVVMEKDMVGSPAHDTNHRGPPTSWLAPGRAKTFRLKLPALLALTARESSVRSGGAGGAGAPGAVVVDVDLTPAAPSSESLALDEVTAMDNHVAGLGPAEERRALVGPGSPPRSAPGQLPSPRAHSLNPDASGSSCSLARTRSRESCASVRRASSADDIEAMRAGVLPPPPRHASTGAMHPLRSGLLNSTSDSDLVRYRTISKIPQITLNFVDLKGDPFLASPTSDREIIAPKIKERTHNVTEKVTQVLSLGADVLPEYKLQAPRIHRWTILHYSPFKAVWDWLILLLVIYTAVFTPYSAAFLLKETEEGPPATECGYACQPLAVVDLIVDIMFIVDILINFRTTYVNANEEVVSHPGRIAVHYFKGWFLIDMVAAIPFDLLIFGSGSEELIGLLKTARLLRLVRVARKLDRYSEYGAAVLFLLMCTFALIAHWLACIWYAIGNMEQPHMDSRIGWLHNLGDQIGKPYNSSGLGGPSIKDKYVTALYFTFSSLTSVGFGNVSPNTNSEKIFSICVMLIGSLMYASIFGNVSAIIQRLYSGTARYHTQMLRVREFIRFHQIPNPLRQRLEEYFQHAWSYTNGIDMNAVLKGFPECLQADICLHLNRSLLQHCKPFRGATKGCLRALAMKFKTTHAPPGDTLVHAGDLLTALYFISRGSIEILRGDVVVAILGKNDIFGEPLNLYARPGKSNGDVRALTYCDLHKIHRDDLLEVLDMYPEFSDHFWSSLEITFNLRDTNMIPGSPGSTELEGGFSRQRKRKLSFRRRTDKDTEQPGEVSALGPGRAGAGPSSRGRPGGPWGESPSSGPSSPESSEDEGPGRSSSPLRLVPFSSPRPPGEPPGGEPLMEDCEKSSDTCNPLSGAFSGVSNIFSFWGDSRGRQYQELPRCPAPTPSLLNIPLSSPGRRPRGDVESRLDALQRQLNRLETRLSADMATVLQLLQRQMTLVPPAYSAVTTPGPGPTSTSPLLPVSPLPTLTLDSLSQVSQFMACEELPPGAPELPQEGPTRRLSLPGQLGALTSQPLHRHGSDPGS
Procedure for hERG potassium channel: Experimental Method: CHO-hERG cells were cultured in a 175 cm^2 flask until the cell density reached 60 to 80%. The culture medium was then removed, and the cells were washed once with 7 mL of Phosphate Buffered Saline (PBS). Subsequently, 3 mL of gentle cell detachment solution (Detachin) was added for digestion. Once the digestion was complete, 7 mL of culture medium was added to neutralize the solution. The cells were then centrifuged, and the supernatant was aspirated. To ensure a cell density of 2 to 5×10^6/mL, 5 mL of culture medium was added to resuspend the cells.
The entire process of forming single-cell high-impedance seals and whole-cell recording mode was automatically completed by the high-throughput, fully automated patch clamp system, namely the Qpatch instrument. After obtaining the whole-cell recording mode, the cells were clamped at −80 mV. Prior to applying a 5-second+40 mV depolarization stimulus, a 50-millisecond −50 mV prepulse was given, followed by a repolarization to −50 mV for 5 seconds, and then returning to −80 mV This voltage stimulus was applied every 15 seconds. After recording for 2 minutes, the extracellular solution was recorded for 5 minutes, and then the drug administration process began.
These stock solutions were then diluted 500-fold with extracellular solution to obtain the final concentrations required for testing.

Take `O=c1[nH]cc(F)c(=O)[nH]1` [5-Fluorouracil, reference compound]: the “Animal weight (After tumor removal)” value was 19.20 ± 1.84 g in [1] (nude mice, HCT116 xenograft) and 21.84 ± 1.52 g in data set [2]. Further, the “RTV (d18)” value is 5.52 ± 0.81 in data set [1] (relative tumor volume, d18) and 7.35 ± 1.55 in [2]. Besides, the “TGI (%)” value amounted to 56.16% in data set [1] (tumor volume inhibition) and 59.37% in data set [2].
Take `CCOP(=O)(CCN1CCC(NC(=O)O[C@H]2CC[C@@]3(C)[C@H](CC[C@@H]4[C@@H]3CC[C@]3(C)[C@@H](c5ccc(=O)oc5)CC[C@]43O)C2)CC1)OCC` [Compound 1b]: the IC50 in data set [3] and in [4] was less than 0.004 µM in each case. Further, the “inhibitory effect on the migration of 95D cells” value with 95D cells is on record as “excellent anti-tumor migration effects”.
As to `CCOP(=O)(CCCN1CCC(NC(=O)O[C@H]2CC[C@@]3(C)[C@H](CC[C@@H]4[C@@H]3CC[C@]3(C)[C@@H](c5ccc(=O)oc5)CC[C@]43O)C2)CC1)OCC` [Compound 1c], the IC50 in data set [3] is less than 0.004 µM. For the same molecule, in data set [4], the IC50 was less than 0.004 µM. Further, in data set [2], the “Animal weight (After tumor removal)” value is 21.02 ± 3.08 g, the “RTV (d18)” value was found to be 6.56 ± 1.79 and the “TGI (%)” value is recorded as 63.69%. For the same molecule, the “Inhibition rate (hERG potassium channel)” value at hERG potassium channel worked out at 53.8±4.13%.
For `CCOP(=O)(CN1CCC(NC(=O)O[C@H]2CC[C@@]3(C)[C@H](CC[C@@H]4[C@@H]3CC[C@]3(C)[C@@H](c5ccc(=O)oc5)CC[C@]43O)C2)CC1)OCC` [Compound 1d], the IC50 in [3] amounted to 0.024 µM; in data set [4] it was 0.037 µM.
As to `CCCOP(=O)(CN1CCC(NC(=O)O[C@H]2CC[C@@]3(C)[C@H](CC[C@@H]4[C@@H]3CC[C@]3(C)[C@@H](c5ccc(=O)oc5)CC[C@]43O)C2)CC1)OCCC` [Compound 1e], the IC50 in data set [3] amounted to 0.022 µM; in [4] it was 0.058 µM.
`C[C@]12CC[C@H](OC(=O)NC3CCN(CP(=O)(OC4CCC4)OC4CCC4)CC3)C[C@H]1CC[C@@H]1[C@@H]2CC[C@]2(C)[C@@H](c3ccc(=O)oc3)CC[C@]12O` [Compound 1f]: the IC50 in data set [3] is 0.067 µM; in [4], 0.026 µM.
For `C[C@]12CC[C@H](OC(=O)NC3CCN(CP(=O)(OC4CCCC4)OC4CCCC4)CC3)C[C@H]1CC[C@@H]1[C@@H]2CC[C@]2(C)[C@@H](c3ccc(=O)oc3)CC[C@]12O` [Compound 1g], the IC50 in data set [3] is 0.289 µM; in [4], 0.422 µM.
For `C[C@]12CC[C@H](OC(=O)NC3CCN(CP(=O)(OC4CCCCC4)OC4CCCCC4)CC3)C[C@H]1CC[C@@H]1[C@@H]2CC[C@]2(C)[C@@H](c3ccc(=O)oc3)CC[C@]12O` [Compound 1h], the IC50 in [3] is 0.336 µM; in data set [4], 0.023 µM.
The corresponding values for `CC(C)OP(=O)(CN1CC[C@@H](NC(=O)O[C@H]2CC[C@@]3(C)[C@H](CC[C@@H]4[C@@H]3CC[C@]3(C)[C@@H](c5ccc(=O)oc5)CC[C@]43O)C2)[C@H](O)C1)OC(C)C` [Compound 1i] are 0.008 µM and 0.015 µM.
With `CC(C)OP(=O)(CNC1CCN(C(=O)O[C@H]2CC[C@@]3(C)[C@H](CC[C@@H]4[C@@H]3CC[C@]3(C)[C@@H](c5ccc(=O)oc5)CC[C@]43O)C2)CC1)OC(C)C` [Compound 1j], the values for the IC50 in [3] and in data set [4] were 0.02 µM and 0.216 µM, respectively.
On to `CO[C@H]1CN(C(=O)O[C@H]2CC[C@@]3(C)[C@H](CC[C@@H]4[C@@H]3CC[C@]3(C)[C@@H](c5ccc(=O)oc5)CC[C@]43O)C2)CC[C@H]1NCP(=O)(OC(C)C)OC(C)C` [Compound 1k], for which the results for the IC50 in data set [3] and in data set [4] were 0.143 µM and 0.239 µM, respectively.
The corresponding values for `CC(C)OP(=O)(CNC1CCN(C(=O)O[C@H]2CC[C@@]3(C)[C@H](CC[C@@H]4[C@@H]3CC[C@]3(C)[C@@H](c5ccc(=O)oc5)CC[C@]43O)C2)CC1F)OC(C)C` (some centres unmarked) [Compound 1l] are 0.12 µM and 0.283 µM.
`COc1cccc2c1C(=O)c1c(O)c3c(c(O)c1C2=O)C[C@@](O)(C(=O)CO)C[C@@H]3O[C@H]1C[C@H](N)[C@H](O)[C@H](C)O1` [Doxorubicin, reference compound]: the IC50 in data set [3] turned out to be 0.054 µM; in data set [4], 0.92 µM; in data set [5] it was 0.008 µM; in data set [6] it was 0.019 µM; in [7], 0.115 µM.
Take `CC(C)OP(=O)(CN1CCN(C(=O)O[C@H]2CC[C@@]3(C)C(CCC4C3CC[C@]3(C)[C@@H](c5ccc(=O)oc5)CC[C@]43O)C2)CC1)OC(C)C` (some centres unmarked) [IVa]: the IC50 stood at 0.019 µM in [5], 0.117 µM in [6] and 0.574 µM in [7].
Take `CCOP(=O)(CN1CCN(C(=O)O[C@H]2CC[C@@]3(C)C(CCC4C3CC[C@]3(C)[C@@H](c5ccc(=O)oc5)CC[C@]43O)C2)CC1)OCC` (some centres unmarked) [IVb]: the results for the 50% inhibitory concentration (IC50) in data set [5], in [6] and in [7] were 0.018 µM, 0.04 µM and 0.262 µM, respectively. Also, in [6], the “activity against HCT116 compared with doxorubicin” value is reported as “comparable activity against HCT116 to doxorubicin”.
With `CCOP(=O)(CCCN1CCN(C(=O)O[C@H]2CC[C@@]3(C)C(CCC4C3CC[C@]3(C)[C@@H](c5ccc(=O)oc5)CC[C@]43O)C2)CC1)OCC` (some centres unmarked) [IVc], the IC50 amounted to 0.011 µM in data set [5], 0.027 µM in data set [6] and 0.072 µM in [7]. The “activity against HCT116 compared with doxorubicin” value in [6] was “comparable activity against HCT116 to doxorubicin”. Also, in [7] (versus doxorubicin), the “activity against 95D compared with doxorubicin” value was “superior activity against 95D compared to doxorubicin”.
